The text below walks through data of US11945825B2, “Compositions and methods for regulating glucose homeostasis and insulin action” (UNIVERSITY OF VIRGINIA PATENT FOUNDATION, priority 2012, dated 2024).

The conditions of data set [1]: mouse, in vivo; cited from earlier work.
The conditions of data set [2]: patients consuming ˜300 mg/d, over several months, no change in food intake; cited from earlier work.
Data set [3] concerns L6 cells.
Data set [4] has as its system L6 myoblasts. Conditions: 1 μM uncoupler, 1 μM oligomycin.
In data set [5] the test system is L6 myoblasts. The data set is described as follows: Oxygen consumption rate dose response (Seahorse XF24). The format is cell-based, rat.
In data set [6] the test system is AMP-activated protein kinase. Conditions: L6 cells, 40 min.
The subject of a further data set is L6 myotubes. The settings on record: 5 min treatment.
The subject of data set [7] is isolated mouse liver mitochondria. Conditions: 5 μM.
Data set [8] has as its system L6 cells. Conditions: 20 μM, 20 min.

Turning to `O=[N+]([O-])c1ccc(O)c([N+](=O)[O-])c1` [DNP, 2,4-dinitrophenol], in data set [1], the “metabolic effects in mice” value was “improved serological glucose, triglyceride, and insulin levels, as well as decreased oxidative damage, reduced body weight, and increased longevity”. The average weight loss in data set [2] is 1.5 pounds per week.
Regarding `N#CC(C#N)=NNc1ccc(OC(F)(F)F)cc1` [FCCP, carbonyl cyanide p-trifluoromethoxyphenylhydrazone], the plasma membrane potential entry in the data set on L6 cells [3] (current clamp, resting membrane potential, 10 μM) is “reversible and repeatable plasma membrane depolarization”. The “current under voltage clamp” value with L6 cells [3] (holding potential −70 mV, 1 μM and 10 μM) is given as “induced an inward current”. Further, the plasma membrane conductance result in the data set on L6 cells [3] (voltage clamp, −130 mV to −60 mV) is listed as “increase in conductance”. Further, in the data set on L6 myoblasts [4], the “respiration in the presence of oligomycin” value is “increase oxygen consumption in the presence of oligomycin”. Moreover, the “shape of oxygen consumption dose response curve” value in the data set on L6 myoblasts [5] is listed as “inverted bell shaped curve of effectiveness”. Also, the AMPK activation result in data set [6] was “activation of AMP-activated protein kinase”. In the data set with L6 myotubes, the “intracellular acidification relative to BAM15” value is 2 fold. For the same molecule, the “electron donation to the ETC” value in data set [7] (after 2 μM rotenone) is “do not donate electrons to the ETC downstream of complex I”. In data set [7] (succinate added at 20 min), the “effect on complex II (succinate-stimulated respiration)” value is recorded as “do not affect complex II”. Moreover, the “cellular ATP levels” value in the data set with L6 cells [8] is recorded as “loss of cellular ATP”.
